Assay results from PubChem BioAssay (NCI).
Values joined by “and” are separate entries in the source; they are usually repeats but may differ in a detail not shown here. Equal values may be shown once.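 Five compound concentrations were applied to cells in 96-well plates for 48 hours; endpoints were derived by simple linear interpolation of the resulting dose-response curve. GI50 is the concentration that inhibits growth by half. TGI marks complete inhibition of growth.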 Where a SMILES comes first, the peptide text is derived from it. The star is where a group is joined. Boc = CC(C)(C)OC(=O)*

Key:
Assay in all cases: growth of human tumour cells (NCI), 48 h
A549 NSCLC = system: A549 NSCLC
HCC-2998 colon = system: HCC-2998 colon
HL-60(TB) leukemia = system: HL-60(TB) leukemia
K-562 leukemia = system: K-562 leukemia
M14 melanoma = system: M14 melanoma
NCI-H460 lung = system: NCI-H460 lung
NCI/ADR-RES ovarian = system: NCI/ADR-RES ovarian
OVCAR-5 ovarian = system: OVCAR-5 ovarian
SN12C renal = system: SN12C renal
SW-620 colon = system: SW-620 colon

SMILES | GI50 (A549 NSCLC) | TGI (A549 NSCLC) [µM] | GI50 (HCC-2998 colon) | TGI (HCC-2998 colon) | GI50 (HL-60(TB) leukemia) | TGI (HL-60(TB) leukemia) | GI50 (K-562 leukemia) | TGI (K-562 leukemia) | GI50 (M14 melanoma) | TGI (M14 melanoma) | GI50 (NCI-H460 lung) | TGI (NCI-H460 lung) | GI50 (NCI/ADR-RES ovarian) [µM] | TGI (NCI/ADR-RES ovarian) [µM] | GI50 (OVCAR-5 ovarian) | TGI (OVCAR-5 ovarian) | GI50 (SN12C renal) | TGI (SN12C renal) | GI50 (SW-620 colon) | TGI (SW-620 colon)
Cn1c(Nc2ccc(C(F)(F)F)cc2)nc2cc(Oc3ccnc(-c4ncc(C(F)(F)F)[nH]4)c3)ccc21 | 0.231 µM | 11.7 | 1.25 µM | 13.1 µM | 0.365 µM | 7.06 µM | 1.76 µM | 25 µM | 0.0338 µM | 1.33 µM | 0.197 µM | 7.61 µM | 1.64 | 13.4 | 1.53 µM | 17.4 µM | 0.0855 µM | 16.6 µM | 0.578 µM | 12.7 µM
COc1ccccc1Nc1ncc(-c2ccccc2)o1 | > 25 µM | > 25 | > 25 µM | > 25 µM | > 25 µM | > 25 µM | > 25 µM | > 25 µM | > 25 µM | > 25 µM | > 25 µM | > 25 µM | > 25 | > 25 | > 25 µM | > 25 µM | > 25 µM | > 25 µM | > 25 µM | > 25 µM
COC(=O)C(C)NC(=O)C(CCSC)NC(=O)C(Cc1ccccc1)NC(=O)OC(C)(C)C (stereo not drawn) (Boc-Phe-Met-Ala-OMe; configuration not given here) | 35.7 mg/L | > 100 | 20.1 mg/L | 36.4 µg/mL and > 100 µM | 30.2 mg/L | 64.6 µg/mL and > 100 µM | 32.7 mg/L | 91.2 mg/L | – | > 100 µM | 40.6 mg/L | > 100 µM | – | > 100 | 31.6 mg/L | > 100 µM | 25.4 mg/L | 71.8 µg/mL and > 100 µM | 18.2 mg/L | 37.2 µg/mL and > 100 µM
CSc1nc(NC2OC(COC(C)=O)C(OC(C)=O)C(OC(C)=O)C2OC(C)=O)c(N=CC=Nc2c(NC3OC(COC(C)=O)C(OC(C)=O)C(OC(C)=O)C3OC(C)=O)nc(SC)n(C)c2=O)c(=O)n1C (stereo unspecified) | > 50 µM | > 100 | > 50 µM | > 100 µM | > 50 µM | > 100 µM | > 50 µM | > 100 µM | > 50 µM | > 50 µM | > 50 µM | > 100 µM | > 50 | > 100 | > 50 µM | > 100 µM | > 50 µM | > 100 µM | > 50 µM | > 100 µM
COc1ccc2c(c1)c[n+](C)c1c3cc(OC)c(OC)cc3ccc21 | – | 10.3 | 1.86 µM and 7.34 µM | 3.71 µM and 19.9 µM | 0.467 µM and 1.85 µM | 3.48 µM and 16.9 µM | – | 43.1 µM | 1.41 µM and 4.48 µM | 3.05 µM and 14.3 µM | 1.23 µM and 2.7 µM | 2.72 µM and 10.9 µM | – | > 100 | 1.52 µM and 11.8 µM | 5.17 µM and 25 µM | – | 3.53 µM and 8.51 µM | – | 3.13 µM and 3.76 µM
COc1ccc(C(O)(CCC(C)C)C(CN2CCOCC2)c2ccc(Cl)cc2)cc1 (stereo unspecified) | 11.6 µM | 35 | 10.7 µM | 24 µM | 14.8 µM | 39.1 µM | 15.1 µM | 47 µM | 13.9 µM | 33.2 µM | 11.4 µM | 31.6 µM | 11.1 | 34.2 | 12.2 µM | 25.7 µM | 13.4 µM | 31.2 µM | 11.4 µM | 26.8 µM
COc1ccc(-c2cc(/C=C/C(=O)c3ccc(OC)c(OC)c3)[nH]n2)cc1 | 1.88 µM | 5.95 | 2.02 µM | 3.97 µM | 2.18 µM | 6.4 µM | 1.28 µM | 10.7 µM | 2.17 µM | 4.97 µM | 1.64 µM | 4.34 µM | 3.44 | 24.8 | 1.65 µM | 4.09 µM | 1.64 µM | 3.78 µM | 1.35 µM | 3.59 µM
CCN(Cc1ccc(F)cc1)c1ccc(CO)c(Br)c1 | 0.614 µM | 21.3 | 5.29 µM | 30.8 µM | 3.26 µM | 26.4 µM | 0.487 µM | 18.4 µM | 16.5 µM | > 55.1 µM | 0.144 µM | 12.1 µM | 13.4 | 46.8 | 0.0525 µM | 0.225 µM | 8.71 µM | 23.9 µM | 0.475 µM | > 41.2 µM
O=c1[nH]c2ccc(O)cc2o1 | – | > 100 | – | > 100 µM | – | > 100 µM | – | > 100 µM | – | > 100 µM | – | > 100 µM | – | > 100 | – | > 100 µM | – | > 100 µM | – | > 100 µM
O=S(=O)(Nc1ccc(Cl)cc1Cl)c1ccc(-c2cnc(C3CC3)o2)cc1 | 1.02 µM | > 100 | 1.6 µM | 16.5 µM | 0.351 µM | 9.41 µM | 0.382 µM | > 100 µM | 0.473 µM | > 88.2 µM | 0.466 µM | > 40.4 µM | 0.51 | 17.5 | 2.66 µM | > 100 µM | 1.4 µM | 46.2 µM | 0.423 µM | > 100 µM
O=C(CNS(=O)(=O)Cc1ccccc1)NNc1ccccc1 | – | > 100 | – | > 100 µM | – | > 100 µM | – | > 100 µM | – | > 100 µM | – | > 100 µM | – | > 100 | – | > 100 µM | – | > 100 µM | – | > 100 µM
CN(C)C(=S)Sc1ccc([N+](=O)[O-])cc1[N+](=O)[O-] | 3.21 µM | 17.6 | 6.9 µM | 17.4 µM | 2.68 µM | 8.54 µM | 1.06 µM | 25.6 µM | 2.5 µM | 9.46 µM | 0.74 µM | 4.57 µM | 4.73 | 16.8 | 6.01 µM | 18.1 µM | 3.24 µM | 11.2 µM | 1.1 µM | 2.79 µM
CN(C)c1ccc(N=Nc2ccccn2)c(O)c1 | 0.478 µM | > 100 | 0.376 µM | > 100 µM | 0.228 µM | 1.46 µM | 0.355 µM | > 100 µM | – | – | 0.296 µM | > 32.1 µM | 0.281 | > 27.6 | 0.992 µM | > 100 µM | 0.396 µM | > 100 µM | 0.419 µM | > 100 µM
